For data set [1], the system named is SK-N-Be2 cells. Description: Cell viability assay (CellTiterGlo) in SK-N-Be2 cells. The data set is classed as cell-based, human. The settings on record: SK-N-Be2 cells.
The subject of data set [2] is MYCN transcript. Briefly: RNASeq analysis of SK-N-Be2 cells, MYCN transcript. The data set is classed as cell-based, human. The settings on record: 3 μM or 10 μM, 3 h and 6 h. Here is the method:
(§1) To uncover changes in gene expression that underpin responses to pomiferin and isopomiferin, RNASeq analysis of SK-N-Be2 cells was performed following treatment with the two active prenylated isoflavonoids as well as a null analog that served as a negative control. SK-N-Be2 cells were treated with either 3 μM or 10 μM of isopomiferin or pomiferin and sampled after 3 h and 6 h. […] By comparing the active to the null analogs, downstream analyses can focus on changes in gene expression associated with the MYCN signature.

In data set [3] the test system is TEAD4 transcript. Description: RNASeq analysis of SK-N-Be2 cells, TEAD4 transcript. Type of data set: cell-based, human. The settings on record: 3 μM or 10 μM, 3 h and 6 h. Here is the method: as §1
Data set [4] deals with MYCNA tumor xenografts. Briefly: Tumor growth of MYCNA tumor xenografts. Type of data set: in vivo, mouse. The settings on record: daily i.p. 20 mg/kg, 21 days, versus vehicle-only control. Here is the method:
6-week old male mice were purchased from Charles River Laboratories, and housed in Columbia University's animal control barrier facilities, and mice were allowed one week to acclimate to their new environment. To establish tumor xenografts, 10×10^6 SK-N-Be2 cells were suspended in a 200 μL volume of 50% matrigel slurry. […] Mice were kept on standard chow diet (Purina), and their cage dressing changed twice weekly. Animals were investigated regularly for any sign of discomfort. […] To create the stock solution of isopomiferin, 5 mg of isopomiferin (MicroSource) was dissolved into 50 μL dimethyl sulfoxide (DMSO). To this 450 μL of cyclodextrin solution was added dropwise. Cyclodextrin is dissolved as a 50% w/v solution in 40% EtOH. It is important to add the cyclodextrin slowly and with continual mixing to solubilize the compound. This solution was added to one volume of PBS and filter-sterilized. This solution was then diluted to achieve appropriate concentrations for a 200 μL volume administration at 10 mg/kg to each mouse. The solution was administered to animals via intraperitoneal injection (i.p.). […]
The ability of the compounds to inhibit growth of MYCNA tumor xenografts was evaluated by treating tumor bearing mice with daily i.p. injections of 20 mg/kg isopomiferin or pomiferin. […] MYCN abundance was evaluated mid-experiment, following 14 days of treatment.

Data set [5] relates to NCI-H69, NCI-H526, NCI-H4414 and A549 cells. Briefly: Cell viability of four lung cancer cell lines. The settings on record: dose series. The data set is classed as cell-based. Here is the method: Neuroblastoma (SK-N-Be2; IMR-32; NLF; SK-N-AS) and lung cancer cell lines (NCI-H69; NCI-H526; NCI-H441-4) were grown in Advanced RPMI medium (Life Technologies) supplemented with 10% FBS (Gibco), 1% GlutaMAX (Gibco), and 1% Penicillin/Streptomycin. A549 cells (NSCLC) was grown in F-12K medium (Gibco) with 10% FBS (Gibco), and 1% Penicillin/Streptomycin. Cell cultures were incubated at 37° C. with 5% CO2. For chemical screening, cells were trypsinized, counted and seeded into white opaque 384-well plates (Perkin Elmer) at a density of 1000 cells/well and incubated overnight. […] Cells were treated for 72 hrs, after which cell viability was determined using CellTiterGlo® luminescence assay, following the manufacturer's instructions (Promega). […] Cell viability data were analyzed and charted using PRISM v7.0 software (GraphPad). The dose-response curves were used to generate an inhibitory constant (IC50) value, which was averaged across the two cell lines from each subtype (ie: SK-N-AS and NLF as MESN NBL subtype; IMR-32 and SK-N-Be2 as MycN^AMP subtype). The IC50 values for each subtype were used to evaluate subtype selectivity of each compound, and identify compounds with enhanced potency in MycN^AMP NBL.

Data set [6] concerns the target T1, CK2a1 (Homo sapiens, UniProt P68400).
T1 construct: purchased Reaction Biology Corporation (Malvern, Pa.)
Briefly: Cell-free biochemical CK2a1 kinase assay. The settings on record: for IC50: read-out: IC50 of CK2a kinase activity. As to the method:
Cell-free biochemical kinase assays were performed at Reaction Biology Corporation (Malvern, Pa.). In brief, kinase substrates were diluted into reaction buffer containing 20 mM Hepes (pH 7.5), 10 mM MgCl2, 1 mM EGTA, 0.02% Brij35, 0.02 mg/ml BSA, 0.1 mM Na3VO4, 2 mM DTT, 1% DMSO. Purified protein (CK2a1, CK2a2, or mTOR) was added to the substrate solution and gently mixed. Test compounds were diluted from 10 mM DMSO stock solutions into the reaction buffer using an Echo550 acoustic dispenser, followed by incubation at RT for 20 min. 33P-ATP (10 μCi/μL) was added to reaction mixture, following incubation for 2 h at RT. Reactions were then spotted onto P81 ion exchange paper and kinase activity was detected by filter binding method.

Data set [7] in a line: Metabolic stability in mouse liver microsomes. Type of data set: in vitro ADME. Here is the method:
Mouse liver microsomes (Xenotech) were diluted to 0.5 mg/mL in a solution containing 100 mM PBS buffer at 7.4 pH, an NADPH regenerating system (Promega), and test compounds at 20 μM. The mixture was incubated at 37° C. under gentle rotation for the indicated time points. The reaction was quenched by aliquoting 15 μL of solution into 60 μL ice-cold acetonitrile containing an internal standard. Test compounds were quantified by LC-MS using a system comprised of a Thermo Scientific Dionex Ultimate 3000 and a Bruker amaZon SL equipped with an electrospray ionization source controlled by a Bruker Hystar 3.2. Compounds were separated by injecting 20 μL of sample onto an Agilent Eclipse Plus C18 column (2.1×50 mm, […]) maintained at 20° C., with the flow rate set at 400 μL/min. Initial flow conditions were 60% solvent A (MilliQ H2O, 0.1% acetic acid), and 40% solvent B (HPLC-grade MeOH, 0.1% acetic acid). Solvent B was raised to 60% over 0.25 min and to 70% by 6.75 min. Solvent B was raised to 95% by 7 min and lowered back to 40% by 8 minutes; total run time was 9 min.

Entries after “also recorded” stand apart in the source; their conditions may differ.

T1 sequence (P68400 whole entry): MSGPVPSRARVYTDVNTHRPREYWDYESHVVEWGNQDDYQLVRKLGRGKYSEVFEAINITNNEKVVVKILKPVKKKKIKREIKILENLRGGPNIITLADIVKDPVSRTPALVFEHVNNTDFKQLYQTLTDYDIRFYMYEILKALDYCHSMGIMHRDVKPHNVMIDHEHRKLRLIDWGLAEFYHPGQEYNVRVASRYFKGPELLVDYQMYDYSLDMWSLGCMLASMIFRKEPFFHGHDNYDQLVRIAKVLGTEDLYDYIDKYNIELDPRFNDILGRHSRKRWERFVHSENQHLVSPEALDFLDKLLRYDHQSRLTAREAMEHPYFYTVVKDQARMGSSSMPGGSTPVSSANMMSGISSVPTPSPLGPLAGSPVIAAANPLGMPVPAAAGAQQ

For `CC(C)=CCc1c2c(c3occ(-c4ccc(O)c(O)c4)c(=O)c3c1O)C=CC(C)(C)O2` [pomiferin], in data set [1] (72 hrs), the “inhibition of SK-N-Be2 cell viability (rank or activity in words)” value is reported as “the most potent compound of the group; also recorded: the most potent inhibitor of viability”. In addition, the “MYCN transcript abundance (RNASeq)” value in data set [2] was “suppressed MYCN transcript abundance”. For the same molecule, the “TEAD4 transcript (RNASeq)” value in data set [3] is “suppressed both MYCN and TEAD4 transcript”. Besides, the tumor growth entry in data set [4] was “reduced rates of tumor proliferation that were significant from the vehicle-only control arm by day 19”. In addition, the “sensitivity of MycN-expressing versus non-expressing lung cancer lines (cell viability)” value in data set [5] is “MycN-driven cell lines were more sensitive to the compound”. Also, in data set [6], the CK2a1 kinase activity result is “inhibiting both isoforms equally in a concentration-dependent manner” and the half-inhibitory concentration (IC50) was ~7 µM. Further, in data set [7] (2 h incubation, 0.5 mg/mL microsomes), the “compound remaining in mouse liver microsomes” value is reported as ~80%.

In data set [1] (determined empirically), `CC1(C)C=Cc2c(c3c(c4c(=O)c(-c5ccc(O)c(O)c5)coc24)OC(C)(C)CC3)O1` [isopomiferin] gave an IC20 of 10 µM. For the same molecule, the “MYCN transcript abundance (RNASeq)” value in data set [2] was “suppressed MYCN transcript abundance”. Besides, the “TEAD4 transcript (RNASeq)” value in data set [3] is recorded as “did not affect TEAD4”. For the same molecule, the tumor growth entry in data set [4] is reported as “these differences were not significant”. The “sensitivity of MycN-expressing versus non-expressing lung cancer lines (cell viability)” value in data set [5] is “the MycN-expressing lines were more sensitive to isopomiferin treatment”. Besides, in data set [6], the IC50 is ~7 µM. Besides, in data set [7] (mouse, microsomes, 2 h), the “compound remaining in mouse liver microsomes” value is ~50%.

Values taken from patent publication US20220119399A1, “COMPOUNDS AND COMPOSITIONS THAT CAUSE MYCN AND/OR CMYC DEGRADATION AND METHODS OF USE THEREOF” (THE TRUSTEES OF COLUMBIA UNIVERSITY IN THE CITY OF NEW YORK, priority 2018, published 2022).
